Source: PMC9414584, “Synthesis and Biological Evaluation of Indole-2-Carboxamides with Potent Apoptotic Antiproliferative Activity as EGFR/CDK2 Dual Inhibitors” (Pharmaceuticals, 2022)
Where “and” joins values, the source holds several entries; their conditions need not be identical. Identical values can stand only once.

Assays:
[1] = system: breast cancer cell line (MCF-7); assay: Antiproliferative MTT assay, MCF-7; assay type: cell-based; conditions: Homo sapiens, MCF7; MCF-7, MTT; read-out: Antiproliferative Activity IC50 ± SEM MCF-7
Excerpt: (§1) Using the MTT assay with doxorubicin as the reference drug, the antiproliferative activities of 5a–k, 6a–c, and 7 against four human cancer cell lines, including pancreas cancer cell line (Panc-1), breast cancer cell line (MCF-7), colon cancer cell line (HT-29), and epithelial cancer cell line (A-549) were investigated.

[2] = system: colon cancer cell line (HT-29); assay: Antiproliferative MTT assay, HT-29; assay type: cell-based; conditions: Homo sapiens; HT-29, MTT; read-out: Antiproliferative Activity IC50 ± SEM HT-29
Excerpt: as §1

[3] = system: epithelial cancer cell line (A-549); assay: Antiproliferative MTT assay, A-549; assay type: cell-based; conditions: Homo sapiens, A549; A-549, MTT; read-out: Antiproliferative Activity IC50 ± SEM A-549
Excerpt: as §1

[4] = system: four human cancer cell lines (Panc-1, MCF-7, HT-29, A-549); assay: Antiproliferative MTT assay, average of four cancer cell lines (mean GI50); assay type: cell-based; conditions: for IC50: Homo sapiens, average of A-549, MCF-7, Panc-1, HT-29, read-out: Antiproliferative Activity IC50 Average (GI50 against the four cell lines); for fold less potent than 5e (mean GI50): ratio of mean GI50 vs compound 5e
[5] = system: pancreas cancer cell line (Panc-1); assay: Antiproliferative MTT assay, Panc-1; assay type: cell-based; conditions: Homo sapiens; Panc-1, MTT; read-out: Antiproliferative Activity IC50 ± SEM Panc-1
Excerpt: as §1

EGFR = EGFR (Homo sapiens, UniProt P00533); assay: EGFR-TK inhibitory assay; assay type: biochemical; conditions: read-out: EGFR Inhibition IC50 ± SEM
[6] = Cell viability assay (MTT) on MCF-10A cells; assay type: cell-based; conditions: human, MCF-10A mammary gland epithelial cells
Procedure: (§2) The MCF-10A (human mammary gland epithelial) cell line was used in the cell viability experiment. Compounds 5a–k, 6a–c, and 7 were incubated with MCF-10A cells for 4 days at 50 µM concentration, and the viability of cells was determined using the 3-(4,5-dimethylthiazol-2-yl)-2,5-diphenyltetrazolium bromide (MTT) test.. All compounds had no cytotoxic effects, and the vitality of the cells was more than 83% for most of the compounds examined.
as §2, with “test.” for “test.. All compounds had no cytotoxic effects, and the vitality of the cells was more than 83% for most of the compounds examined.”

CDK2 enzyme = CDK2 enzyme (Homo sapiens, UniProt P24941); assay: CDK2 inhibitory assay
p53 in MCF-7 = assay: p53 transcription/level in MCF-7; assay type: cell-based, human; conditions: MCF-7 cells
Excerpt: p53 is a unique protein that participates in several physiological processes such as cell metabolism, stem cell maintenance, and cell adhesion. Because p53 is frequently inactivated in cancer cells, the cells are unable to undergo apoptosis. Similarly, activating, or stabilizing p53 aids cancer cells in normalizing p53-controlled physiological processes and increasing apoptotic activity.

[7] = system: Caspase-3 in MCF-7 breast cancer cell line; assay: Caspase-3 level in MCF-7 cells
[8] = system: Caspase-9 in MCF-7 breast cancer cell line; assay: Caspase-9 level in MCF-7 cells; assay type: cell-based, human
[9] = system: Bax in breast cancer cell line (MCF-7); assay: Bax level assay in MCF-7 cells; assay type: cell-based, human
[10] = system: Cytochrome C in MCF-7 human breast cancer cell line; assay: Cytochrome C assay in MCF-7 cells; assay type: cell-based
Procedure: The quantity of cytochrome C within the cell is important for activating caspases and commencing the intrinsic apoptosis process. […] The findings add to the evidence that apoptosis can be attributed to Cytochrome C overexpression and activation of the intrinsic apoptotic pathway triggered by the investigated compounds.
Indole-2-carboxamide derivatives 5d, 5e, and 5h were evaluated as Cytochrome C activators in the MCF-7 human breast cancer cell line.

[11] = system: Bcl-2 in breast cancer cell line (MCF-7); assay: Bcl-2 level assay in MCF-7 cells; assay type: cell-based, human
[12] = system: Caspase-8 in MCF-7 breast cancer cell line; assay: Caspase-8 level in MCF-7 cells; assay type: cell-based, human

Chain of EGFR (P00533 25-1210): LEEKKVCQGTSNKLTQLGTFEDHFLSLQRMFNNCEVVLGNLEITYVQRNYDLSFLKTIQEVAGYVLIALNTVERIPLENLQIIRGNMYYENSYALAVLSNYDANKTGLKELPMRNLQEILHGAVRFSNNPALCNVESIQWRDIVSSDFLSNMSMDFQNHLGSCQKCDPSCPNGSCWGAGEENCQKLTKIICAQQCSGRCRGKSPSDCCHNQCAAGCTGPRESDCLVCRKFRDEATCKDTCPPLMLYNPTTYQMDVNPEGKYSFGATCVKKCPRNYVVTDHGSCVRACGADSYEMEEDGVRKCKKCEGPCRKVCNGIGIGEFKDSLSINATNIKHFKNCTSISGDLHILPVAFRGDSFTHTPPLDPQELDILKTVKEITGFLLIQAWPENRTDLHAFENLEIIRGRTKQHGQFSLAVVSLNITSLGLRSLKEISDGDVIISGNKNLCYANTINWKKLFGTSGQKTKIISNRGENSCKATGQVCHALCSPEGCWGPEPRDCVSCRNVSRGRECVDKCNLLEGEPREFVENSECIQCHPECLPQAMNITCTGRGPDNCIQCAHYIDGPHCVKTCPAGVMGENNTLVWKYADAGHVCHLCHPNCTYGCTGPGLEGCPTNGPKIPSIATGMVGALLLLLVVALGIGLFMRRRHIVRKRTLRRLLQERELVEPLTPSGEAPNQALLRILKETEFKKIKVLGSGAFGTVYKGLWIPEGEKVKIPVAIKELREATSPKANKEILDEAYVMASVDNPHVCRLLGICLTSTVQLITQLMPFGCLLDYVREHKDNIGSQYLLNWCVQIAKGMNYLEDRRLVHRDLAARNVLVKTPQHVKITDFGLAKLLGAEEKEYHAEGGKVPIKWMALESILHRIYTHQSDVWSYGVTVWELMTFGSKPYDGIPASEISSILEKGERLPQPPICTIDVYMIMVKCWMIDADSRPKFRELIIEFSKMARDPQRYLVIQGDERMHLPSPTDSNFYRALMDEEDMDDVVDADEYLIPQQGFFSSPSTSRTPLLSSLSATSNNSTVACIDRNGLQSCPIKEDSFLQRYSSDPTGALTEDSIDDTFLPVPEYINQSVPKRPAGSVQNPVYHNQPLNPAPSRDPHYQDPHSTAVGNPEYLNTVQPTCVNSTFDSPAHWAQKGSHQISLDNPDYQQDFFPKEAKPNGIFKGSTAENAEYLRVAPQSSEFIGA

## Cc1c(C(=O)NCCc2ccc(N3CCCCC3)cc2)[nH]c2c(F)cc(F)cc12 [Compound 5k, 5,7-Difluoro-3-methyl-N-(4-(piperidin-1-yl)phenethyl)-1H-indole-2-carboxamide]
[1]
  IC50: 1.2 ± 0.1 µM
[2]
  IC50: 1.5 ± 0.2 µM
[3]
  IC50: 1.4 ± 0.2 µM
other
  melting point: 192 to 194 °C
[4]
  IC50: 1.4 µM
[5]
  IC50: 1.5 ± 0.2 µM
EGFR
  IC50: 0.129 ± 0.011 µM
[6]
  viability at 4 days, 50 µM: 87%
CDK2 enzyme
  IC50: 0.019 µM

## Cc1c(C(=O)NCCc2ccc(N(C)C)cc2)[nH]c2ccc(Cl)cc12 [Compound 5b, 5-Chloro-N-(4-(dimethylamino)phenethyl)-3-methyl-1H-indole-2-carboxamide]
[1]
  IC50: 2.9 ± 0.3 µM
[2]
  IC50: 3.6 ± 0.3 µM
[3]
  IC50: 3.2 ± 0.3 µM
other
  melting point: 202 to 204 °C
[4]
  IC50: 3.3 µM
[5]
  IC50: 3.5 ± 0.3 µM
[6]
  viability at 4 days, 50 µM: 87%

## Cc1c(C(=O)N2CCN(c3ccccc3)CC2)[nH]c2cc(Cl)ccc12 [Compound 6b, (6-Chloro-3-methyl-1H-indol-2-yl)(4-phenylpiperazin-1-yl)methanone]
[1]
  IC50: 2.3 ± 0.2 µM
[2]
  IC50: 2.8 ± 0.2 µM
[3]
  IC50: 2.5 ± 0.2 µM
other
  melting point: 180 to 182 °C
[4]
  IC50: 2.6 µM
[5]
  IC50: 2.65 ± 0.2 µM
[6]
  viability at 4 days, 50 µM: 91%

## Cc1c(C(=O)N2CCN(c3ccccc3)CC2)[nH]c2ccc(Cl)cc12 [Compound 6a, (5-Chloro-3-methyl-1H-indol-2-yl)(4-phenylpiperazin-1-yl)methanone]
[1]
  IC50: 2.6 ± 0.2 µM
[2]
  IC50: 2.9 ± 0.2 µM
[3]
  IC50: 2.9 ± 0.3 µM
other
  melting point: 165 to 167 °C
[4]
  IC50: 2.8 µM
[5]
  IC50: 2.8 ± 0.2 µM
[6]
  viability at 4 days, 50 µM: 90%

## Cc1c(C(=O)NCc2ccccc2)[nH]c2ccc(Cl)cc12 [Compound 7, N-Benzyl-5-chloro-3-methyl-1H-indole-2-carboxamide]
[1]
  IC50: 4 ± 0.4 µM
[2]
  IC50: 4.6 ± 0.4 µM
[3]
  IC50: 4.1 ± 0.4 µM
other
  melting point: 203 to 205 °C
[4]
  IC50: 4.3 µM
[5]
  IC50: 4.4 ± 0.4 µM
[6]
  viability at 4 days, 50 µM: 91%

## Cc1c(C(=O)NCCc2ccc(N3CCCCC3)cc2)[nH]c2cc(Cl)ccc12 [Compound 5g, 6-Chloro-3-methyl-N-(4-(piperidin-1-yl)phenethyl)-1H-indole-2-carboxamide]
[1]
  IC50: 4.8 ± 0.5 µM
[2]
  IC50: 5.1 ± 0.5 µM
[3]
  IC50: 4.9 ± 0.5 µM
other
  melting point: 218 to 220 °C
[4]
  IC50: 5 µM
[4]; vs compound 5c
  times lower antiproliferative efficacy than 5c: 3 times
[5]
  IC50: 5.2 ± 0.5 µM
[6]
  viability at 4 days, 50 µM: 89%

## Cc1c(C(=O)N2CCN(c3ccccc3)CC2)[nH]c2c(F)cc(F)cc12 [Compound 6c, (5,7-Difluoro-3-methyl-1H-indol-2-yl)(4-phenylpiperazin-1-yl)methanone]
[1]
  IC50: 2.1 ± 0.2 µM
[2]
  IC50: 2.5 ± 0.2 µM
[3]
  IC50: 2.2 ± 0.2 µM
other
  melting point: 171 to 173 °C
[4]
  IC50: 2.3 µM
[5]
  IC50: 2.4 ± 0.2 µM
[6]
  viability at 4 days, 50 µM: 89%

## Cc1c(C(=O)NCCc2ccccc2)[nH]c2ccc(Cl)cc12 [Compound 5a, 5-Chloro-3-methyl-N-phenethyl-1H-indole-2-carboxamide]
[1]
  IC50: 3.2 ± 0.3 µM
[2]
  IC50: 3.9 ± 0.3 µM
[3]
  IC50: 3.7 ± 0.3 µM
other
  melting point: 182 to 184 °C
[4]
  IC50: 3.7 µM
  fold less potent than 5e (mean GI50): roughly four-fold
[5]
  IC50: 3.9 ± 0.3 µM
[6]
  viability at 4 days, 50 µM: 89%

## Cc1c(C(=O)NCCc2ccccc2)[nH]c2c(F)cc(F)cc12 [Compound 5j, 5,7-Difluoro-3-methyl-N-phenethyl-1H-indole-2-carboxamide]
[1]
  IC50: 1 ± 0.1 µM
[2]
  IC50: 1.3 ± 0.1 µM
[3]
  IC50: 1.2 ± 0.1 µM
other
  melting point: 198 to 200 °C
[4]
  IC50: 1.2 µM
[5]
  IC50: 1.3 ± 0.1 µM
EGFR
  IC50: 0.098 ± 0.008 µM
[6]
  viability at 4 days, 50 µM: 83%
CDK2 enzyme
  IC50: 0.034 ± 0.003 µM

## Cc1c(C(=O)NCCc2ccc(N3CCOCC3)cc2)[nH]c2ccc(Cl)cc12 [Compound 5d, 5-Chloro-3-methyl-N-(4-morpholinophenethyl)-1H-indole-2-carboxamide]
[1]
  IC50: 0.9 ± 0.1 µM
[2]
  IC50: 1.1 ± 0.1 µM
[3]
  IC50: 1.05 ± 0.1 µM
other
  melting point: 210 to 212 °C
p53 in MCF-7
  p53 Conc: 1375 pg/mL and 1375 ± 15 pg/mL
[7]
  Caspase-3 Conc: 570.00 ± 5.00 pg/mL
[8]
  Caspase-9 Conc: 16.90 ng/mL
[4]
  IC50: 1.05 µM
[5]
  IC50: 1.1 ± 0.1 µM
[6]
  viability at 4 days, 50 µM: 89%
[9]
  Bax Conc: 290 pg/mL and 289.70 ± 2.50 pg/mL
[10]
  Cytochrome C Conc: 0.70 ng/mL
[11]
  Bcl-2 Conc: 0.89 ng/mL
CDK2 enzyme
  IC50: 0.023 ± 0.002 µM
[12]
  Caspase-8 Conc: 1.94 ng/mL

## Cc1c(C(=O)NCCc2ccc(N3CCOCC3)cc2)[nH]c2c(Cl)cc(Cl)cc12 [Compound 5i, 5,7-Dichloro-3-methyl-N-(4-morpholinophenethyl)-1H-indole-2-carboxamide]
[1]
  IC50: 1.3 ± 0.1 µM
[2]
  IC50: 1.65 ± 0.2 µM
[3]
  IC50: 1.55 ± 0.2 µM
other
  melting point: 185 to 187 °C
[4]
  IC50: 1.5 µM
[5]
  IC50: 1.6 ± 0.2 µM
EGFR
  IC50: 0.137 ± 0.012 µM
[6]
  viability at 4 days, 50 µM: 90%
CDK2 enzyme
  IC50: 0.027 ± 0.003 µM

## Cc1c(C(=O)NCCc2ccc(N3CCCCC3)cc2)[nH]c2ccc(Cl)cc12 [Compound 5c, 5-Chloro-3-methyl-N-(4-(piperidin-1-yl)phenethyl)-1H-indole-2-carboxamide]
[1]
  IC50: 1.4 ± 0.2 µM
[2]
  IC50: 1.8 ± 0.2 µM
[3]
  IC50: 1.7 ± 0.2 µM
other
  melting point: 216 to 218 °C
[4]
  IC50: 1.7 µM
  fold less potent than 5e (mean GI50): at least 1.8 fold
[4]; ratio of mean GI50 vs compound 5d
  fold reduction of mean GI50 potency vs 5d: ≥ 1.6 fold
[5]
  IC50: 1.8 ± 0.2 µM
[6]
  viability at 4 days, 50 µM: 87%

## Cc1c(C(=O)NCCc2ccccc2)[nH]c2cc(Cl)ccc12 [Compound 5f, 6-Chloro-3-methyl-N-phenethyl-1H-indole-2-carboxamide]
[1]
  IC50: 1.7 ± 0.2 µM
[2]
  IC50: 2.1 ± 0.2 µM
[3]
  IC50: 1.9 ± 0.2 µM
other
  melting point: 170 to 172 °C
[4]
  IC50: 1.95 µM
[4]; vs compound 5a
  times more potent than 5a: 1.9 times
[5]
  IC50: 2.1 ± 0.2 µM
[6]
  viability at 4 days, 50 µM: 90%

## Cc1c(C(=O)NCCc2ccc(N3CCCCC3)cc2)[nH]c2c(Cl)cc(Cl)cc12 [Compound 5h, 5,7-Dichloro-3-methyl-N-(4-(piperidin-1-yl)phenethyl)-1H-indole-2-carboxamide]
[1]
  IC50: 0.9 ± 0.1 µM
[2]
  IC50: 1.2 ± 0.1 µM
[3]
  IC50: 1 ± 0.1 µM
other
  melting point: 178 to 180 °C
[7]
  Caspase-3 Conc: 537.50 ± 5.00 pg/mL
[7]; vs control untreated cells
  Caspase-3 Fold Change: 8.20 fold
[8]
  Caspase-9 Conc: 16.65 ng/mL
[8]; vs control cells
  Caspase-9 Fold Change: 17.50 fold
[4]
  IC50: 1.1 µM
[5]
  IC50: 1.2 ± 0.1 µM
EGFR
  IC50: 0.118 ± 0.01 µM
[6]
  viability at 4 days, 50 µM: 87%
[10]
  Cytochrome C Conc: 0.65 ng/mL
[10]; vs untreated control cells
  Cytochrome C Fold Change: 13 fold
CDK2 enzyme
  IC50: 0.011 ± 0.001 µM
[12]
  Caspase-8 Conc: 1.88 ng/mL
[12]; vs control cells
  Caspase-8 Fold Change: 9.50 fold
